Consider 37 molecules from patent US10487068B2, “Pyridazine derivatives as RORc modulators” (Genentech, Inc., priority 2015, dated 2019).

The assay has as its target T1, RORc ligand binding domain (Homo sapiens, UniProt P51449).
T1 sequence (P51449 269-508 limits assumed): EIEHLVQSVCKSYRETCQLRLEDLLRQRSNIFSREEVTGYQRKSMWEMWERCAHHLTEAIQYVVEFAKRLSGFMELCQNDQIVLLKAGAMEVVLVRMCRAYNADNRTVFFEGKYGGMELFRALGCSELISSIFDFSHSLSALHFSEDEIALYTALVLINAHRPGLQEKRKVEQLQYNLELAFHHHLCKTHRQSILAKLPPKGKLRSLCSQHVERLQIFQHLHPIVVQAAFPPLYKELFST
The assay is described as follows: In Vitro RORc Ligand Binding Assay. The note with it: RORc IC50, radioligand 25-[3H]hydroxycholesterol 6 nM; 0.6 ug/mL RORc receptor; 3 h at 25° C.

Broadly, the IC50 is the midpoint of a concentration-inhibition curve. Low values mean higher potency, high ones lower potency.

Regarding `CC(C)(O)c1coc(-c2cccc([C@@]34CC[C@@H](c5cc(-c6c(F)cccc6F)nnc53)C4(C)C)n2)n1` [Example 240, 2-(2-(6-((5R,8S)-3-(2,6-difluorophenyl)-9,9-dimethyl-5,6,7,8-tetrahydro-5,8-methanocinnolin-8-yl)pyridin-2-yl)oxazol-4-yl)propan-2-ol], the half-inhibitory concentration (IC50) stood at 4.5 nM.

As for `CC[C@H](O)c1n[nH]c(-c2cccc([C@@]34CC[C@@H](c5cc(-c6c(F)cccc6F)nnc53)C4(C)C)n2)n1` [Example 322, (S)-1-(5-(6-((5R,8S)-3-(2,6-difluorophenyl)-9,9-dimethyl-5,6,7,8-tetrahydro-5,8-methanocinnolin-8-yl)pyridin-2-yl)-1H-1,2,4-triazol-3-yl)propan-1-ol], the half-maximal inhibitory concentration (IC50) came to 11.5 nM.

Consider `CC1(C)[C@H]2CC[C@]1(c1cncc(-n3cc(CO)cn3)n1)c1nnc(-c3c(F)cccc3F)cc12` [Example 243, (1-(6-((5R,8S)-3-(2,6-difluorophenyl)-9,9-dimethyl-5,6,7,8-tetrahydro-5,8-methanocinnolin-8-yl)pyrazin-2-yl)-1H-pyrazol-4-yl)methanol], for which the half-maximal inhibitory concentration (IC50) was found to be 11.7 nM.

As to `CC1(C)[C@H]2CC[C@]1(c1ccnc(-n3cnc(CO)c3)n1)c1nnc(-c3c(F)cccc3F)cc12` [Example 219], the IC50 is 6.7 nM.

As for `Cc1ncn(-c2cncc([C@@]34CC[C@@H](c5cc(-c6c(F)cccc6F)nnc53)C4(C)C)n2)n1` [Example 255], the IC50 was 8.6 nM.

`CC1(C)[C@H]2CC[C@]1(c1cc(-c3nnc(CO)o3)ccn1)c1nnc(-c3c(F)cccc3F)cc12` [Example 75]: the IC50 was determined as 167 nM.

For the molecule `CC1(C)[C@H]2CC[C@]1(c1ccnc(NCCO)n1)c1nnc(-c3c(F)cccc3F)cc12` [Example 98], the IC50 was 15.4 nM.

`CC1(C)[C@H]2CC[C@]1(c1cccc(-c3nc(CS(C)(=O)=O)n[nH]3)n1)c1nnc(-c3c(F)cccc3F)cc12` [Example 321]: the IC50 came to 12.7 nM.

On to `CCC(O)(CC)c1coc(-c2cncc([C@@]34CC[C@@H](c5cc(-c6c(F)cccc6F)nnc53)C4(C)C)n2)n1` [Example 377, 3-(2-(6-((5R,8S)-3-(2,6-difluorophenyl)-9,9-dimethyl-5,6,7,8-tetrahydro-5,8-methanocinnolin-8-yl)pyrazin-2-yl)oxazol-4-yl)pentan-3-ol], for which the half-maximal inhibitory concentration (IC50) turned out to be 5.3 nM.

`CC1(C)[C@H]2CC[C@]1(c1ccnc(-n3ccc(CC(N)=O)n3)n1)c1nnc(-c3c(F)cccc3F)cc12` [Example 300] displayed an IC50 of 12.2 nM.

In the case of `CC(=O)Nc1ccnc([C@@]23CC[C@@H](c4cc(-c5c(F)cccc5F)nnc42)C3(C)C)c1` [Example 74], the IC50 turned out to be 118 nM.

`CC1(C)[C@H]2CC[C@]1(c1ccnc(-c3nnc(CO)[nH]3)n1)c1nnc(-c3c(F)cccc3F)cc12` [Example 180] came in with a 50% inhibitory concentration (IC50) of 28 nM.

For `Cc1ncnn1-c1ncc(F)c([C@@]23CC[C@@H](c4cc(-c5c(F)cccc5F)nnc42)C3(C)C)n1` [Example 363], the half-maximal inhibitory concentration (IC50) came to 33.5 nM.

For `CC1(C)[C@H]2CC[C@]1(c1cncc(C(=O)N[C@H]3C[C@](C)(O)C3)n1)c1nnc(-c3c(F)cccc3F)cc12` [Example 197, 6-((5R,8S)-3-(2,6-difluorophenyl)-9,9-dimethyl-5,6,7,8-tetrahydro-5,8-methanocinnolin-8-yl)-N-((1r,3S)-3-hydroxy-3-methylcyclobutyl)pyrazine-2-carboxamide], the half-inhibitory concentration (IC50) turned out to be 14 nM.

Molecule `CC1(C)[C@H]2CC[C@]1(c1cccc(C(=O)NCCS(C)(=O)=O)n1)c1nnc(-c3c(F)cccc3F)cc12` [Example 83, 6-((5R,8S)-3-(2,6-difluorophenyl)-9,9-dimethyl-5,6,7,8-tetrahydro-5,8-methanocinnolin-8-yl)-N-(2-(methylsulfonyl)ethyl)picolinamide] yielded a half-inhibitory concentration (IC50) of 13.3 nM.

As to `CNC(=O)c1ccnc([C@@]23CC[C@@H](c4cc(-c5c(F)cccc5F)nnc42)C3(C)C)c1` [Example 70], the IC50 came out at 50 nM.

`CC1(C)[C@H]2CC[C@]1(c1cccc(C(=O)NC3COC3)n1)c1nnc(-c3c(F)cccc3F)cc12` [Example 60, 6-((5R,8S)-3-(2,6-difluorophenyl)-9,9-dimethyl-5,6,7,8-tetrahydro-5,8-methanocinnolin-8-yl)-N-(oxetan-3-yl)picolinamide] had a half-maximal inhibitory concentration (IC50) of 13.6 nM.

`CC1(C)[C@H]2CC[C@]1(c1ccnc(NCc3nnc[nH]3)n1)c1nnc(-c3c(F)cccc3F)cc12` [Example 163]: the IC50 turned out to be 19.2 nM.

For the molecule `CC1(C)[C@H]2CC[C@]1(c1ccnc(-c3cn[nH]c3)n1)c1nnc(-c3c(F)cccc3F)cc12` [Example 253], the half-inhibitory concentration (IC50) came to 5.7 nM.

`CC1(C)[C@H]2CC[C@]1(c1nccc(C(=O)NCCO)n1)c1nnc(-c3c(F)cccc3F)cc12` [Example 95, 2-((5R,8R)-3-(2,6-difluorophenyl)-9,9-dimethyl-5,6,7,8-tetrahydro-5,8-methanocinnolin-8-yl)-N-(2-hydroxyethyl)pyrimidine-4-carboxamide] displayed an IC50 of 117 nM.

With `CC[C@@H](O)c1coc(-c2cncc([C@@]34CC[C@@H](c5cc(-c6c(F)cccc6F)nnc53)C4(C)C)n2)n1` [Example 382, (R)-1-(2-(6-((5R,8S)-3-(2,6-difluorophenyl)-9,9-dimethyl-5,6,7,8-tetrahydro-5,8-methanocinnolin-8-yl)pyrazin-2-yl)oxazol-4-yl)propan-1-ol], the IC50 was 7.3 nM.

As for `CC1(C)[C@H]2CC[C@]1(c1cccc(S(=O)(=O)NCC3(O)COC3)n1)c1nnc(-c3c(F)cccc3F)cc12` [Example 191, 6-((5R,8S)-3-(2,6-difluorophenyl)-9,9-dimethyl-5,6,7,8-tetrahydro-5,8-methanocinnolin-8-yl)-N-((3-hydroxyoxetan-3-yl)methyl)pyridine-2-sulfonamide], the IC50 came out at 24.6 nM.

On to `CC(C)(O)c1cc(-c2nccc([C@@]34CC[C@@H](c5cc(-c6c(F)cccc6F)nnc53)C4(C)C)n2)ccn1` [Example 372], for which the IC50 came to 2.6 nM.

Molecule `CC1(C)[C@H]2CC[C@]1(c1ccnc(NC[C@@H](O)CO)n1)c1nnc(-c3c(F)cccc3F)cc12` [Example 154] registered an IC50 of 42.1 nM.

For the molecule `CC1(C)[C@H]2CC[C@]1(c1ccnc(C(N)=O)n1)c1nnc(-c3c(F)cccc3F)cc12` [Example 113], the IC50 is 27.6 nM.

Regarding `CC(C)(O)c1cc(-c2cncc([C@@]34CC[C@@H](c5cc(-c6c(F)cccc6F)nnc53)C4(C)C)n2)[nH]n1` [Example 247, 2-(5-(6-((5R,8S)-3-(2,6-difluorophenyl)-9,9-dimethyl-5,6,7,8-tetrahydro-5,8-methanocinnolin-8-yl)pyrazin-2-yl)-1H-pyrazol-3-yl)propan-2-ol], the IC50 came to 20 nM.

With `Cc1nnc(-c2cncc([C@@]34CC[C@@H](c5cc(-c6c(F)cccc6F)nnc53)C4(C)C)n2)[nH]1` [Example 105], the IC50 stood at 30.9 nM.

The molecule `CC1(C)[C@@H]2CC[C@@]1(c1cncc(C(N)=O)n1)c1nnc(-c3c(F)cccc3F)cc12` [Example 58, 6-((5S,8R)-3-(2,6-difluorophenyl)-9,9-dimethyl-5,6,7,8-tetrahydro-5,8-methanocinnolin-8-yl)pyrazine-2-carboxamide] displayed a concentration for half-maximal inhibition (IC50) of 31.4 nM.

For `CC1(C)[C@H]2CC[C@]1(c1cncc(C(=O)NCCCO)n1)c1nnc(-c3c(F)cccc3F)cc12` [Example 85, 6-((5R,8S)-3-(2,6-difluorophenyl)-9,9-dimethyl-5,6,7,8-tetrahydro-5,8-methanocinnolin-8-yl)-N-(3-hydroxypropyl)pyrazine-2-carboxamide], the IC50 worked out at 30.6 nM.

For the molecule `C[C@H](O)Cn1ccc(-c2cncc([C@@]34CC[C@@H](c5cc(-c6c(F)cccc6F)nnc53)C4(C)C)n2)n1` [Example 423, (S)-1-(3-(6-((5R,8S)-3-(2,6-difluorophenyl)-9,9-dimethyl-5,6,7,8-tetrahydro-5,8-methanocinnolin-8-yl)pyrazin-2-yl)-1H-pyrazol-1-yl)propan-2-ol], the concentration for half-maximal inhibition (IC50) is 9.6 nM.

Consider `CC(C)(O)c1nnc(-c2nccc([C@@]34CC[C@@H](c5cc(-c6c(F)cccc6F)nnc53)C4(C)C)n2)[nH]1` [Example 262], for which the IC50 amounted to 37.4 nM.

Regarding `COC(=O)c1nc(C)cc([C@@]23CC[C@@H](c4cc(-c5c(F)cccc5F)nnc42)C3(C)C)n1` [Example 176], the IC50 was 12.9 nM.

The molecule `CC(C)(O)c1coc(-c2ccnc([C@@]34CC[C@@H](c5cc(-c6c(F)cccc6F)nnc53)C4(C)C)n2)n1` [Example 281, 2-(2-(2-((5R,8R)-3-(2,6-difluorophenyl)-9,9-dimethyl-5,6,7,8-tetrahydro-5,8-methanocinnolin-8-yl)pyrimidin-4-yl)oxazol-4-yl)propan-2-ol] came in with a half-maximal inhibitory concentration (IC50) of 14.9 nM.

In turn, `CC1(C)[C@H]2CC[C@]1(c1ccnc(NC[C@H](O)CO)n1)c1nnc(-c3c(F)cccc3F)cc12` [Example 153] gave an IC50 of 15.7 nM.

As for `CC1(C)[C@H]2CC[C@]1(c1cccc(S(=O)(=O)N3CCOCC3)n1)c1nnc(-c3c(F)cccc3F)cc12` [Example 137, 4-((6-((5R,8S)-3-(2,6-difluorophenyl)-9,9-dimethyl-5,6,7,8-tetrahydro-5,8-methanocinnolin-8-yl)pyridin-2-yl)sulfonyl)morpholine], the IC50 turned out to be 14.6 nM.

For `C[C@H](CO)NC(=O)c1cccc([C@@]23CC[C@@H](c4cc(-c5c(F)cccc5F)nnc42)C3(C)C)n1` [Example 54, 6-((5R,8S)-3-(2,6-difluorophenyl)-9,9-dimethyl-5,6,7,8-tetrahydro-5,8-methanocinnolin-8-yl)-N-((R)-1-hydroxypropan-2-yl)picolinamide], the 50% inhibitory concentration (IC50) was found to be 29.5 nM.

The molecule `CNC(=O)c1cccc([C@@]23CC[C@@H](c4cc(-c5c(F)cccc5F)nnc42)C3(C)C)n1` [Example 17, 6-((5R,8S)-3-(2,6-difluorophenyl)-9,9-dimethyl-5,6,7,8-tetrahydro-5,8-methanocinnolin-8-yl)-N-methylpicolinamide] registered an IC50 of 20.5 nM.
